Legend:
Human HDAC1 = target: T1, Human HDAC1 (Homo sapiens, UniProt Q13547); assay: HDAC1 biochemical assay, AMC-labeled peptide substrate; conditions: read-out: HDAC Isoform IC50 (nM) 1
T1 construct: full length with C-terminal His-tag and C-terminal FLAG-tag; His (C); FLAG (C); host or cells: baculovirus expression system
In short: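 Two-step fluorogenic read: HDAC1 deacetylates 50 μM acetyl-lysine AMC peptide RHKK(Ac)AMC for 1 h at 30° C (pH 8.0, 1% DMSO, with compound), then developer digests the product for fluorescence at Ex/Em 360/460. Enzyme is full-length human, His/FLAG-tagged, insect-cell expressed, at 0.3 ng/ul.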

Human HDAC5 = target: T2, Human HDAC5 (Homo sapiens, UniProt Q9UQL6); assay: HDAC5 biochemical assay, class IIa-specific substrate; conditions: read-out: HDAC Isoform IC50 (nM) 5
T2 construct: full length with C-terminal His tag, MW=51.1 kDa; His (C); host or cells: baculovirus expression system
T2 sequence (Q9UQL6 656-1122 limits assumed): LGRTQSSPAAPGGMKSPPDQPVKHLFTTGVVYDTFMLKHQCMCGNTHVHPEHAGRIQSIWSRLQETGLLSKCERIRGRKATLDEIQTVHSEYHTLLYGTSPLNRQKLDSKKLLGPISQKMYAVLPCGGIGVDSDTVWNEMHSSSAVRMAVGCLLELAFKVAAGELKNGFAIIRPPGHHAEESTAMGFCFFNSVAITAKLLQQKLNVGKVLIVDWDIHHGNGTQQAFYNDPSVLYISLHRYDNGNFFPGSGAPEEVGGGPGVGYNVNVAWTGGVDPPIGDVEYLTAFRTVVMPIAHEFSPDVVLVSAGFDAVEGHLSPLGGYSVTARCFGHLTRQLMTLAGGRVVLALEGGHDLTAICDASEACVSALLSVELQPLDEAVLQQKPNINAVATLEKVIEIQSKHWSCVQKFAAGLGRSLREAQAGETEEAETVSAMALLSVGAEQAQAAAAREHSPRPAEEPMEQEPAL
In short: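 Two-step fluorogenic read-out: deacetylated trifluoroacetyl-lysine AMC substrate (50 μM) digested by developer, measured at Ex/Em 360/460. Deacetylation step: 0.05 ng/ul His-tagged full-length baculoviral enzyme with compound, 30 min, room temperature, pH 8.0 Tris with 1 mg/mL BSA and 1% DMSO.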

Human HDAC2 = target: T3, Human HDAC2 (Homo sapiens, UniProt Q92769); assay: HDAC2 biochemical assay, AMC-labeled peptide substrate; conditions: read-out: HDAC Isoform IC50 (nM) 2
T3 construct: full length with C-terminal GST-tag; GST (C); host or cells: baculovirus expression system
T3 sequence (Q92769 whole entry, canonical isoform): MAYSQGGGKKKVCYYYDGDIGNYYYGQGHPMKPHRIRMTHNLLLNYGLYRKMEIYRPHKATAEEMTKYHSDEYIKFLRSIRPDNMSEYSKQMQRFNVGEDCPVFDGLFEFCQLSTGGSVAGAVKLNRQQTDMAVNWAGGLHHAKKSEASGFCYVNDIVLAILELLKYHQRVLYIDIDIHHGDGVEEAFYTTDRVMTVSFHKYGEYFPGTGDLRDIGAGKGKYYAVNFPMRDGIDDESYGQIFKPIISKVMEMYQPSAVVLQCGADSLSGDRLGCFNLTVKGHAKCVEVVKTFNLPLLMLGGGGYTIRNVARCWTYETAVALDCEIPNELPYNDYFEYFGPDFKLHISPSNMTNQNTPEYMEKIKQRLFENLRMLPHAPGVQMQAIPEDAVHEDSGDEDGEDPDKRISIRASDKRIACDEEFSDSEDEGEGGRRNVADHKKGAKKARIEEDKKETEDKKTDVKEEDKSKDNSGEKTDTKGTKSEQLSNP
In short: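 Full-length human HDAC2 with C-terminal GST tag, baculovirus-expressed, at 0.07 ng/ul with 50 μM RHKK(Ac)AMC substrate in Tris-HCl pH8.0 buffer with BSA, 1% DMSO final. Incubated 1 hour at 30° C with compounds, then developer added; fluorescence read at 360/460 Ex/Em.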

Human HDAC8 = target: T4, Human HDAC8 (Homo sapiens, UniProt Q9BY41); assay: HDAC8 biochemical assay, AMC-labeled peptide substrate; conditions: read-out: HDAC Isoform IC50 (nM) 8
T4 construct: full length with C-terminal His tag, MW=42.6 kDa; His (C); host or cells: baculovirus expression system
T4 sequence (Q9BY41 1-377): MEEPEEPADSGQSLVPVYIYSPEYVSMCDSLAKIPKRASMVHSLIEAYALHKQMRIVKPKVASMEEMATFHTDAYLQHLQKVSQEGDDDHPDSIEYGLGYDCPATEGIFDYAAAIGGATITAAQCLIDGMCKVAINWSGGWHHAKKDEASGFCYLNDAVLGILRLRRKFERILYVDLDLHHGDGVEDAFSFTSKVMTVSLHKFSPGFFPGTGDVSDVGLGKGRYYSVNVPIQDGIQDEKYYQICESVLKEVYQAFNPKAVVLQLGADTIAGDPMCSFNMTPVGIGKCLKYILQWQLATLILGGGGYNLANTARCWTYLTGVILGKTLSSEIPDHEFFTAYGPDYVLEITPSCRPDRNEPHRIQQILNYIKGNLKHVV
In short: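 Two-step fluorogenic readout: compounds and enzyme deacetylate 100 µM RHK(Ac)K(Ac)AMC for 2 h at 30° C (pH8.0 Tris buffer, BSA, 1% DMSO final), then developer releases AMC, read at 360/460 Ex/Em. Enzyme: 1 ng/ul full-length His-tagged human HDAC8 from baculovirus.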

T1 sequence (Q13547 whole entry, canonical isoform): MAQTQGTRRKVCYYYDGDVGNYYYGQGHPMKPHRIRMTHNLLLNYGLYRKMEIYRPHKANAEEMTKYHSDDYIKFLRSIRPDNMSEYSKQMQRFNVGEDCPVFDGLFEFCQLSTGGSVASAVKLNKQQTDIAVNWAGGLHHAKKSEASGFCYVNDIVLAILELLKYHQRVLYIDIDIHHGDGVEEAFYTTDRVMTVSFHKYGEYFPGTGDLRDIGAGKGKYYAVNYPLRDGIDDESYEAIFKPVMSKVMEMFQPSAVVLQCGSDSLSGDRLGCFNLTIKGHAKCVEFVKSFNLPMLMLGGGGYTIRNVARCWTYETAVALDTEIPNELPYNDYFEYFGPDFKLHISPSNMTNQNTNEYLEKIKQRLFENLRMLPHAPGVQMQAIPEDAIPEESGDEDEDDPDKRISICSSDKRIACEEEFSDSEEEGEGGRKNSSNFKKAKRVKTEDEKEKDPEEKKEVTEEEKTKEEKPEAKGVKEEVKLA

| IC50 (Human HDAC1) | IC50 (Human HDAC5) | IC50 (Human HDAC2) | IC50 (Human HDAC8) | SMILES |
| --- | --- | --- | --- | --- |
| ≤ 10000 nM | ≤ 1000 nM | – | – | CS(=O)(=O)c1nccc(N(Cc2ccc(-c3noc(C(F)(F)F)n3)s2)c2cnccn2)n1 [Example CE, 2-Methanesulfonyl-N-(pyrazin-2-yl)-N-({5-[5-(trifluoromethyl)-1,2,4-oxadiazol-3-yl]thiophen-2-yl}methyl)pyrimidin-4-amine] |
| ≤ 10000 nM | ≤ 1000 nM | > 10000 nM | ≤ 10000 nM | FC(F)(F)c1ccc(N(Cc2ccc(-c3noc(C(F)(F)F)n3)s2)c2cnccn2)nn1 [Example DH, N-(Pyrazin-2-yl)-6-(trifluoromethyl)-N-({5-[5-(trifluoromethyl)-1,2,4-oxadiazol-3-yl]thiophen-2-yl}methyl)pyridazin-3-amine] |
| > 10000 nM | ≤ 500 nM | > 10000 nM | ≤ 10000 nM | FC(F)(F)c1nc(-c2ccc(CN(c3ccncn3)c3cnccn3)s2)no1 [Example BZ, N-(Pyrazin-2-yl)-N-({5-[5-(trifluoromethyl)-1,2,4-oxadiazol-3-yl]thiophen-2-yl}methyl)pyrimidin-4-amine] |
| > 10000 nM | ≤ 10000 nM | > 10000 nM | > 10000 nM | FC(F)(F)c1nc(-c2ccc(CN(c3ccccn3)c3cnccn3)s2)no1 [Example V, N-(Pyridin-2-yl)-N-({5-[5-(trifluoromethyl)-1,2,4-oxadiazol-3-yl]thiophen-2-yl}methyl)pyrazin-2-amine] |
| ≤ 10000 nM | ≤ 500 nM | > 10000 nM | ≤ 10000 nM | CS(=O)(=O)c1ccc(N(Cc2ccc(-c3noc(C(F)(F)F)n3)s2)c2cnccn2)nn1 [Example DL, 6-Methanesulfonyl-N-(pyrazin-2-yl)-N-({5-[5-(trifluoromethyl)-1,2,4-oxadiazol-3-yl]thiophen-2-yl}methyl)pyridazin-3-amine] |
| > 10000 nM | ≤ 500 nM | > 10000 nM | ≤ 10000 nM | FC(F)(F)c1nc(-c2ccc(CN(c3cncnc3)c3cnccn3)s2)no1 [Example CR, N-(Pyrazin-2-yl)-N-({5-[5-(trifluoromethyl)-1,2,4-oxadiazol-3-yl]thiophen-2-yl}methyl)pyrimidin-5-amine] |
| ≤ 10000 nM | ≤ 1000 nM | > 10000 nM | ≤ 10000 nM | FC(F)(F)c1nc(-c2ccc(CN(c3cnccn3)c3ccc(N4CCCC4)nn3)s2)no1 [Example DI, N-(Pyrazin-2-yl)-6-(pyrrolidin-1-yl)-N-({5-[5-(trifluoromethyl)-1,2,4-oxadiazol-3-yl]thiophen-2-yl}methyl)pyridazin-3-amine] |

— US20210038607A1, “OXADIAZOLYLTHIOPHENE DERIVATIVES USEFUL AS HISTONE DEACETYLASE INHIBITORS” (Karus Therapeutics Limited, priority 2018, published 2021)
